From US12134610B2, “Somatostatin subtype-2 receptor (SST2R) targeted therapeutics and uses thereof” (priority 2022, dated 2024)
Read-outs that look alike come from different tables or passages of the source. Starred links: 1 amine or outer side, 2 acyl side, 3 side chain; linkers in the order of their positions; H or OH if unused. Non-standard residues stand in square brackets, D forms with d. Residues, ends and D or L forms follow the SMILES beside them. *: point of attachment. X1 = Cc1cc(F)cc(-c2cnc(NCCNC(=O)CCOCCC(=O)*)c(-c3nc4ccc(Cl)cc4[nH]3)c2N2CCC(N)CC2)c1; Dolaproine = CO[C@@H]([C@@H]1CCCN1)[C@@H](C)C(=O)O; Dil = CC[C@H](C)[C@H](NC)[C@@H](CC(=O)O)OC; PABC = O=C(OCc1ccc(N[*:1])cc1)[*:2]; X2 = C[C@@H](N*)[C@@H](O)c1ccccc1; Cya = N[C@@H](CS(=O)(=O)O)C(=O)O; Cit = NC(=O)NCCC[C@H](N)C(=O)O; NMeV = CN[C@H](C(=O)O)C(C)C

Key:
Type in all cases: cell-based
SST2 = biological target: T1, SST2 (Homo sapiens, UniProt P30874); assay: PathHunter CHO-K1 SST2 internalization assay; conditions: PathHunter CHO-K1 SST2, 90 min
T1 construct: host or cells: PathHunter CHO-K1 SST2 cells
Protocol: SMDCs of the present invention were assessed in vitro using the human PathHunter CHO-K1 SST2 β-arrestin2 and PathHunter CHO-K1 SST2 Internalization Assays from DiscoverX. The CHO-K cells were seeded in 20 μLs of cell culture medium in a white-walled 384 well tissue culture-compatible plate at a density of 2500 cells/well. After a 48-hour incubation, cells were treated with 5 μLs of a 1:3 serially diluted SST2 SMDC prepared at 5× concentration with a final top compound concentration of 10 uM for 90 min at 37 C and in 5% CO2. 11 dilutions were tested as well as one treatment that was compound free. After incubation, the media containing treatments were discarded and 20 μL of a working solution of Beta-Glo from Promega Beta-Glo Assay System was added to each well. The plate was then incubated for 60 min at room temperature in the dark. Luminescence was measured using a Tecan plate reader. IC50 curves were generated using the nonlinear regression analysis (four-parameters) with GraphPad Prism 9. Results were the average of duplicates and are corrected for background.

[1] = biological target: T2, human somatostatin receptor subtype 2 (Homo sapiens, UniProt P30874); assay: Functional cAMP assay for SSTR2 agonists (HTRF) in CHO-K1 cells; conditions: CHO-K1 cells stably expressing human SST2, 20 min
T2 construct: expressed in transfected cells
Summary of the method: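 Agonism scored as loss of NKH477 (1.6 μM)-driven cAMP, with IBMX present, after 20 min, 37° C. exposure of stably transfected CHO-K1 cells to compound dilutions (typically 0-10,000 nM). Lysates read by time-resolved FRET; cAMP interpolated from standard curve and EC50 derived.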

[2] = tested on: NCI-H524 (ATCC) human small cell lung cancer cells
Protocol: SMDCs of the present invention were assessed in an in vitro assay evaluating the inhibition of cell proliferation. NCI-H524 (ATCC) human small cell lung cancer cells were plated in 96-well V-bottom plates (Costar) at a concentration of 5,000 cells/well. 24 h later, the cells were treated for 2 h with a SMDC. SMDC starting dose was 1 uM and two-fold serial dilutions were done for a total of 11 points. After 2 h of treatment, cells were spun down, and the drug-containing media was removed, and fresh complete media was added and used to resuspend the cells, which were spun again. After removal of the media, the cells were resuspended in complete medium and incubated for an additional 70 h. Cell proliferation was assessed using the CellTiter Glo Assay according to the standard protocol (Promega). Luminescence was measured using a TECAN plate reader. Percent proliferation inhibition was calculated using the following formula: % inhibition=(Luminescence Control−Luminescence Treatment)/Luminescence Control*100. IC50 curves were generated using the nonlinear regression analysis (four-parameter) with GraphPad Prism 9.

T1 sequence (P30874 whole entry): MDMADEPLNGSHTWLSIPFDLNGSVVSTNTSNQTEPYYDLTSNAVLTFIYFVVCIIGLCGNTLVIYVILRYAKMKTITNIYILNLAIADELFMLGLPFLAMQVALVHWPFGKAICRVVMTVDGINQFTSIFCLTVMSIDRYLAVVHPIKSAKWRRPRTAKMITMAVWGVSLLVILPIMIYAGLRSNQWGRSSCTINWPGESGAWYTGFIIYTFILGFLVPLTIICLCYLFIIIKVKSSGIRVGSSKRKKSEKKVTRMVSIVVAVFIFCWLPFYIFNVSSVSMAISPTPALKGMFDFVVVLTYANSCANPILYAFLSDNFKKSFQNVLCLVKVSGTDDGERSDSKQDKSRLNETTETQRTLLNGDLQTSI
T2 sequence (P30874 whole entry): as above

| SMILES | EC50 (SST2; read-out: Internalization EC50) [nM] | EC50 ([1]; read-out: hSST2 cAMP Avg EC50) [nM] | EC50 ([2]; 2 h) [nM] | EC50 (SST2; Internalization EC50 (nM)) [nM] | EC50 ([1]; hSST2 cAMP Avg EC50 (nM)) [nM] | EC50 ([2]; 2 h treatment, washout, additional 70 h, read-out: H524 EC50) [nM] |
| --- | --- | --- | --- | --- | --- | --- |
| CC[C@H](C)[C@@H]([C@@H](CC(=O)N1CCC[C@H]1[C@H](OC)[C@@H](C)C(=O)N[C@H](C)[C@@H](O)c1ccccc1)OC)N(C)C(=O)[C@@H](NC(=O)[C@H](C(C)C)N(C)C(=O)OCc1ccc(NC(=O)[C@H](CCCNC(N)=O)NC(=O)[C@@H](NC(=O)[C@H](CCC(=O)O)NC(=O)[C@H](CCC(=O)O)NC(=O)CCOCCC(=O)NCCNc2ncc(-c3cc(C)cc(F)c3)c(N3CCC(N)CC3)c2-c2nc3ccc(Cl)cc3[nH]2)C(C)C)cc1)C(C)C [Compound 98] (X1-EEV[Cit][PABC][NMeV]V[Dil][Dolaproine]-X2) | 2.9 | 0.25 | 120 | – | – | – |
| CC[C@H](C)[C@@H]([C@@H](CC(=O)N1CCC[C@H]1[C@H](OC)[C@@H](C)C(=O)N[C@H](C)[C@@H](O)c1ccccc1)OC)N(C)C(=O)[C@@H](NC(=O)[C@H](C(C)C)N(C)C(=O)OCc1ccc(NC(=O)[C@H](CCCNC(N)=O)NC(=O)[C@@H](NC(=O)CCOCCOCCOCCOCCC(=O)NCCNc2ncc(-c3cc(C)cc(F)c3)c(N3CCC(N)CC3)c2-c2nc3ccc(Cl)cc3[nH]2)C(C)C)cc1C(=O)NCCN)C(C)C [Compound 50] | 7.7 | 0.15 | 5.8 | – | – | – |
| CC[C@H](C)[C@@H]([C@@H](CC(=O)N1CCC[C@H]1[C@H](OC)[C@@H](C)C(=O)N[C@H](C)[C@@H](O)c1ccccc1)OC)N(C)C(=O)[C@@H](NC(=O)[C@H](C(C)C)N(C)C(=O)OCc1ccc(NC(=O)[C@H](CCCNC(N)=O)NC(=O)[C@@H](NC(=O)[C@H](CCC(N)=O)NC(=O)CCOCCC(=O)NCCNc2ncc(-c3cc(C)cc(F)c3)c(N3CCC(N)CC3)c2-c2nc3ccc(Cl)cc3[nH]2)C(C)C)cc1C(=O)NCCN)C(C)C [Compound 57] | 5.7 | 0.38 | 15 | – | – | – |
| CC[C@H](C)[C@@H]([C@@H](CC(=O)N1CCC[C@H]1[C@H](OC)[C@@H](C)C(=O)N[C@H](C)[C@@H](O)c1ccccc1)OC)N(C)C(=O)[C@@H](NC(=O)[C@H](C(C)C)N(C)C(=O)OCc1ccc(NC(=O)[C@H](CCCNC(N)=O)NC(=O)[C@@H](NC(=O)[C@H](CS(=O)(=O)O)NC(=O)CCOCCC(=O)NCCNc2ncc(-c3cc(C)cc(F)c3)c(N3CCC(N)CC3)c2-c2nc3ccc(Cl)cc3[nH]2)C(C)C)cc1)C(C)C [Compound 83] (X1-[Cya]V[Cit][PABC][NMeV]V[Dil][Dolaproine]-X2) | 2.9 | 0.11 | 20 | – | – | – |
| CC[C@H](C)[C@@H]([C@@H](CC(=O)N1CCC[C@H]1[C@H](OC)[C@@H](C)C(=O)N[C@H](C)[C@@H](O)c1ccccc1)OC)N(C)C(=O)[C@@H](NC(=O)[C@H](C(C)C)N(C)C(=O)OCc1ccc(NC(=O)[C@H](CCCNC(N)=O)NC(=O)[C@@H](NC(=O)CCOCCOCCOCCOCCNCCNc2ncc(-c3cc(C)cc(F)c3)c(N3CCC(N)CC3)c2-c2nc3ccc(Cl)cc3[nH]2)C(C)C)cc1)C(C)C [Compound 92] | 27 | 0.56 | 110 | – | – | – |
| CC[C@H](C)[C@@H]([C@@H](CC(=O)N1CCC[C@H]1[C@H](OC)[C@@H](C)C(=O)N[C@H](C)[C@@H](O)c1ccccc1)OC)N(C)C(=O)[C@@H](NC(=O)[C@H](C(C)C)N(C)C(=O)OCc1ccc(NC(=O)[C@H](CCCNC(N)=O)NC(=O)[C@@H](NC(=O)CCOCCOCCOCCC(=O)NCCNc2ncc(-c3cc(C)cc(F)c3)c(N3CCC(N)CC3)c2-c2nc3ccc(Cl)cc3[nH]2)C(C)C)c(O[C@@H]2O[C@H](C(=O)O)[C@@H](O)[C@H](O)[C@H]2O)c1)C(C)C [Compound 138] | 5.2 | 0.16 | 12 | – | – | – |
| CCC(C)C(C(CC(=O)N1CCCC1C(OC)C(C)C(=O)NC(C)C(O)c1ccccc1)OC)N(C)C(=O)C(NC(=O)C(C(C)C)N(C)C(=O)OCc1ccc(NC(=O)[C@H](CCCNC(N)=O)NC(=O)[C@@H](NC(=O)CCOCCOCCOCCOCCC(=O)NCCNc2ncc(-c3cc(C)cc(F)c3)c(N3CCC(N)CC3)c2-c2nc3ccc(Cl)cc3[nH]2)C(C)C)cc1)C(C)C (stereo in doubt) [Compound 25] | 27 | 0.34 | 25 | – | – | – |
| CC[C@H](C)[C@@H]([C@@H](CC(=O)N1CCC[C@H]1[C@H](OC)[C@@H](C)C(=O)N[C@H](C)[C@@H](O)c1ccccc1)OC)N(C)C(=O)[C@@H](NC(=O)[C@H](C(C)C)N(C)C(=O)OCc1ccc(NC(=O)[C@H](C)NC(=O)[C@@H](NC(=O)CCOCCOCCC(=O)NCCNc2ncc(-c3cc(C)cc(F)c3)c(N3CCC(N)CC3)c2-c2nc3ccc(Cl)cc3[nH]2)C(C)C)c(O[C@@H]2O[C@H](C(=O)O)[C@@H](O)[C@H](O)[C@H]2O)c1)C(C)C [Compound 149] | 5.2 | 0.099 | 5 | – | – | – |
| CCc1c2c(nc3ccc(OC(=O)NCCOCCOCCOCCOCCC(=O)NCCNc4ncc(-c5cc(C)cc(F)c5)c(N5CCC(N)CC5)c4-c4nc5ccc(Cl)cc5[nH]4)cc13)-c1cc3c(c(=O)n1C2)COC(=O)[C@]3(O)CC [Compound 10, (19S)-10,19-diethyl-19-hydroxy-14,18-dioxo-17-oxa-3,13-diazapentacyclo[11.8.0.0^2,^11.0^4,^9.0^15,^20]henicosa-1(21),2,4(9),5,7,10,15(20)-heptaen-7-yl N-{14-[(2-{[4-(4-aminopiperidin-1-yl)-3-(6-chloro-1H-1,3-benzodiazol-2-yl)-5-(3-fluoro-5-methylphenyl)pyridin-2-yl]amino}ethyl)carbamoyl]-3,6,9,12-tetraoxatetradecan-1-yl}carbamate] | – | – | – | 3.15 | 0.44 | 17.4 |
| CC[C@H](C)[C@@H]([C@@H](CC(=O)N1CCC[C@H]1[C@H](OC)[C@@H](C)C(=O)N[C@H](C)[C@@H](O)c1ccccc1)OC)N(C)C(=O)[C@@H](NC(=O)[C@H](C(C)C)N(C)C(=O)OCc1ccc(O[C@@H]2O[C@H](C(=O)O)[C@@H](O)[C@H](O)[C@H]2O)c(NC(=O)[C@H](CCCNC(N)=O)NC(=O)[C@@H](NC(=O)CCOCCC(=O)NCCNc2ncc(-c3cc(C)cc(F)c3)c(N3CCC(N)CC3)c2-c2nc3ccc(Cl)cc3[nH]2)C(C)C)c1)C(C)C [Compound 147] | 2.5 | 0.14 | 3.2 | – | – | – |
| COc1cc2cc(c1Cl)N(C)C(=O)C[C@H](OC(=O)[C@@H](C)N(C)C(=O)CCSSCCOCCOCCOCCC(=O)NCCNc1ncc(-c3cc(C)cc(F)c3)c(N3CCC(N)CC3)c1-c1nc3ccc(Cl)cc3[nH]1)[C@]1(C)OC1[C@@H](C)C1C[C@@](O)(NC(=O)O1)[C@H](OC)/C=C/C=C(\C)C2 (stereo partly drawn) [Compound 19, (2S,5S,6S,16E,18E,20R,21S)-11-chloro-21-hydroxy-12,20-dimethoxy-2,5,9,16-tetramethyl-8,23-dioxo-4,24-dioxa-9,22-diazatetracyclo[19.3.1.1^10,14.0^3,5]hexacosa-10,12,14(26),16,18-pentaen-6-yl (2R)-2-{1-[(2-{[4-(4-aminopiperidin-1-yl)-3-(6-chloro-1H-1,3-benzodiazol-2-yl)-5-(3-fluoro-5-methylphenyl)pyridin-2-yl]amino}ethyl)carbamoyl]-N-methyl-3,6,9-trioxa-12,13-dithiahexadecan-16-amido}propanoate] | 7.1 | 0.44 | 20 | – | – | – |
| CCC(C)C(C(CC(=O)N1CCCC1C(OC)C(C)C(=O)NC(C)C(O)c1ccccc1)OC)N(C)C(=O)C(NC(=O)C(C(C)C)N(C)C(=O)OCc1ccc(NC(=O)[C@H](CCCNC(N)=O)NC(=O)[C@@H](NC(=O)CCOCCC(=O)NCCNc2ncc(-c3cc(C)cc(F)c3)c(N3CCC(N)CC3)c2-c2nc3ccc(Cl)cc3[nH]2)C(C)C)cc1)C(C)C (stereo in doubt) [Compound 26] | 11.6 | 0.3 | 10.6 | – | – | – |
| CC[C@H](C)[C@@H]([C@@H](CC(=O)N1CCC[C@H]1[C@H](OC)[C@@H](C)C(=O)N[C@H](C)[C@@H](O)c1ccccc1)OC)N(C)C(=O)[C@@H](NC(=O)[C@H](C(C)C)N(C)C(=O)OCc1ccc(NC(=O)[C@H](CCCNC(N)=O)NC(=O)[C@@H](NC(=O)CCCC(=O)N(C)CC(=O)N(C)CC(=O)N(C)CC(=O)N(C)CC(=O)N(C)CC(=O)NCCNc2ncc(-c3cc(C)cc(F)c3)c(N3CCC(N)CC3)c2-c2nc3ccc(Cl)cc3[nH]2)C(C)C)cc1)C(C)C [Compound 97] | 4.5 | 0.3 | 35 | – | – | – |
